The values below come from article PMC5538713, “RORγt and RORα signature genes in human Th17 cells” (PLoS ONE, 2017).

Where two headings read alike, the source gives them in different places.

What is called % Inhibition is the relative decrease from the control value, in per cent. Higher therefore signals strong suppression. For orientation: Kd means the concentration at which binding is half-saturated. One may read the inhibition as the change of the read-out against control, counted positive when it falls.

The test system of assay [1] is human CD4 T cells, IL-17A production. Briefly: Th17 differentiation assay (IL-17A production). The class given is cell-based. The settings on record: 72 h.
A further assay relates to CI Channel. Put plainly: Cerep selectivity panel. The class given is binding.
The next assay deals with T1, RORα LBD (Homo sapiens, UniProt P35398).
T1 construct: made in house; host or cells: E. coli BL21DE3 GOLD, pET24a
T1 sequence (P35398 304-556 isoform P35398-1): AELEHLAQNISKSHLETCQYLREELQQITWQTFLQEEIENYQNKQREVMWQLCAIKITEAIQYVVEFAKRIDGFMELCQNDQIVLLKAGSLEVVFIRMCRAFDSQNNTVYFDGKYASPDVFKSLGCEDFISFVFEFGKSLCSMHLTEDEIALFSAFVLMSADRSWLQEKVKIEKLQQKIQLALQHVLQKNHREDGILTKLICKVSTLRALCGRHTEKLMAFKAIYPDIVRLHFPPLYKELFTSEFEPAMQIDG
Put plainly: ThermoFluor binding assay, RORα LBD. As for the experimental part: (§1) Recombinant human RORγ, RORα and RORβ LBD proteins were prepared for ThermoFlour binding assay. The nucleotide sequences encoding the ligand binding domains (LBD) of human RORγ (Genbank accession no. NP005051, amino acid 237–497), RORα (Genbank accession no. NP599022, amino acid 304–556), and RORβ (Genbank accession no. NP008845, amino acid 201–452) were PCR-amplified and cloned into pET24a (Novagen) for expression in bacteria. All recombinant proteins contained an additional amino acid sequence of […] at the N-terminal of LBD. After transformation of the bacteria strain BL21DE3 GOLD (Agilent) with the plasmids, 10 to 20 L cultures were grown to 1 OD and recombinant protein expression was induced overnight at 16°C with 0.2mM isopropyl-beta-D-thiogalactopyranoside (IPTG) (Corning). […]. His-tagged proteins were collected with Ni-NTA resin (Qiagen) and purified with a HiTrap Q HP column (GE Life Sciences) eluted with a 40 CV gradient of 50-500mM NaCl.
(§2) The ThermoFluor® assay was established to measure the change in protein stability upon binding with compounds. 1-Anilinonaphthalene-8-Sulfonic Acid (1,8-ANS) (Invitrogen) was used as a fluorescent dye to label the test proteins. The assay was performed in polypropylene PCR microplates (TF-0384/k, Abgene) with a final assay of 3 μL reaction mixture per well overlaid with 1 μL silicone oil (Sigma-Aldrich). Assay plates were robotically loaded onto a thermostatically controlled PCR-type thermal block and then heated at a ramp-rate of 1°C/min. Fluorescence emission was initiated by continuous illumination with UV light (LC6, Hamamatsu) via fiber optic with a band-pass filter (380–400 nm) and detected with a CCD camera (Sensys, Roper Scientific) filtered to detect signal of 500 ± 25 nm. Reference wells contained recombinant LBD of RORγt, RORα or RORβ alone, and the assay conditions were as follows: 0.065 mg/mL RORγt LBD, 60 μM 1,8-ANS, 100 mM HEPES pH 7.0, 10 mM NaCl, 2.5 mM GSH, 0.002% Tween- 20; 0.1 mg/mL RORα, 70 μM 1,8-ANS, 25 mM HEPES pH 7.0, 50 mM NaCl, 0.001% Tween-20; 0.08 mg/mL RORβ, 60 μM 1,8-ANS, 50 mM HEPES pH 7.0, 100 mM NaCl, 0.001% Tween-20. All 3 assays were performed in the absence and in the presence of 100 μM co-activator peptide SRC1 ([…], England Peptide custom synthesis). The binding affinity of test compounds was estimated as described previously.
A general note: DSF heats the sample and reads unfolding from a dye or from intrinsic fluorescence.

In another assay the test system is GABA. Put plainly: Cerep selectivity panel. The class given is binding.
For another assay, the target named is T2, RORβ LBD (Homo sapiens, UniProt Q92753).
T2 construct: made in house; host or cells: E. coli BL21DE3 GOLD, pET24a
T2 sequence (Q92753 201-452 isoform Q92753-1): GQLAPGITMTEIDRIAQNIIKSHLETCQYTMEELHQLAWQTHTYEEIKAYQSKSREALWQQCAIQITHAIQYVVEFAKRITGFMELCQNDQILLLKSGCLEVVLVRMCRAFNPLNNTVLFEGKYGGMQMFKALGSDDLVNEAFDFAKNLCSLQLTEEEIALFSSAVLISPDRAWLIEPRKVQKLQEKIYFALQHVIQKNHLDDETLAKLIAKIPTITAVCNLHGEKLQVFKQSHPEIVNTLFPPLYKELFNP
Put plainly: ThermoFluor binding assay, RORβ LBD. How it is done: as §1, §2

Another assay has as its system OP2. Put plainly: Cerep selectivity panel. The class given is binding.
Assay [2] deals with human CD4 T cells, IFNγ production. Put plainly: Th1 differentiation assay (IFNγ production). It is filed as cell-based. To be noted: 72 h.
Assay [3] has as its system human CD4 T cells under Th17 conditions. Briefly: cells. To be noted: read-out: Th17 Proliferation (IC50, nM).
Another assay has as its target T3, ETA (h) (Homo sapiens, UniProt P25101).
T3 construct: purchased Cerep
T3 sequence (P25101 21-427): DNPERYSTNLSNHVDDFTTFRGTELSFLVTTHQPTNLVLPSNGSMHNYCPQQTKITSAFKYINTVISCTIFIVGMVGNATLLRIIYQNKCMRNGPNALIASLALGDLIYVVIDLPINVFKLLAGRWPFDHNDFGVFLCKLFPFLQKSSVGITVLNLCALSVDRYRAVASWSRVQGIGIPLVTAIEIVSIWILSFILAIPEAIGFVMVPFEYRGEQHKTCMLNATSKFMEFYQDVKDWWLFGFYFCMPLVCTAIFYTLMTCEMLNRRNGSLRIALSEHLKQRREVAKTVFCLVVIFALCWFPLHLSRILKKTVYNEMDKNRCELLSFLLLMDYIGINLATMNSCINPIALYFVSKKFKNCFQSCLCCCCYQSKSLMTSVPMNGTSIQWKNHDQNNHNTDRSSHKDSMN
Briefly: Cerep selectivity panel. It is filed as binding. To be noted: for inhibition at 10 µM: read-out: % Inhibition at 10µM. In short, it runs like this:
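Panel profiling: compound added at 1 µM or 10 µM, activity assessed against 50 receptors, ion channels and transporters.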

Where [4] appears, read: Homo sapiens, CD4+ T, read-out: Th17 Differentiation (IL-17A production) (IC50, nM).
The mark [5] stands for this setting: Homo sapiens, CD4+ T, read-out: Th1 Differentiation (IFNγ production) (IC50, nM).
The mark [6] stands for this setting: recombinant human LBD, read-out: ThermoFlour Binding Assay (Kd, nM) RORα.
Setting [7] is: recombinant human LBD, read-out: ThermoFlour Binding Assay (Kd, nM) RORβ.

Turning to `COc1nc2ccc([C@](O)(c3ccc(Cl)cc3)c3cncn3C)cc2c(Cl)c1Cc1ccc(-n2cccn2)cc1` [B], the results for the IC50 in assay [1] (setting [4]), in assay [2] (setting [5]) and in assay [3] were 84.5 nM, above 240 nM and above 240 nM, respectively. Also, the “% Inhibition at 1µM” value in the assay with CI Channel worked out at 24%; in the assay with GABA it was 9%. In addition, the figures for the “% Inhibition at 10µM” value with CI Channel and with OP2 were 66% and 10%, respectively. Further, the Kd on RORα LBD is above 19600 nM; on RORβ LBD, above 29900 nM.

For the compound `COc1nc2ccc([C@@](O)(c3ccccc3)C3CCN(C(C)=O)CC3)cc2c(Cl)c1Cc1ccc(-n2cccn2)cc1` [C], the values for the IC50 in [1] (setting [4]), in assay [2] (setting [5]) and in [3] were 18.3 nM, above 240 nM and above 240 nM, respectively. The “% Inhibition at 1µM” value in the assay on CI Channel was determined as 16%. Further, the “% Inhibition at 10µM” value came out at 45% with CI Channel, 12% in the assay on GABA (10 µM) and 12% in the assay on OP2. The Kd on RORα LBD (setting [6]) and on RORβ LBD (setting [7]) was above 70000 nM in each case. Also, the inhibition at 10 µM on ETA (h) stood at 12%.

With `COc1nc2ccc([C@@](O)(c3ccc(C)nc3C)c3cnnn3C)cc2c(Cl)c1Cc1ccc(C(F)(F)F)cc1` [compound A], the IC50 in assay [1] (human CD4 T cells, 3 days, read-out: Th17 Differentiation (IL-17A production) (IC50)) is 3.7 nM; in [2] (human CD4 T cells, 3 days, read-out: Th1 Differentiation (IFNγ production) (IC50)), above 240 nM; in assay [3], above 240 nM. For the same compound, the “% Inhibition at 1µM” value with CI Channel is 26%; with GABA, 8%; in the assay with OP2 (1 µM) it was 9%. The “% Inhibition at 10µM” value is given as 87% in the assay with CI Channel and 37% with OP2. Also, the results for the Kd at RORα LBD (setting [6]) and at RORβ LBD (setting [7]) were 166 nM and 4940 nM, respectively. Moreover, 1 µM produced 5% inhibition against ETA (h) (ETA (h), 1 µM). Also, the inhibition at 10 µM at ETA (h) (ETA (h), 10 µM) stood at 4%.

`CN(C)c1nc2ccc(C(O)(c3ccncc3)c3cncn3C)cc2c(Cl)c1-c1ccccc1` (centres unmarked) [compound D]: the IC50 was 22.2 nM in assay [1] (setting [4]) and above 240 nM in assay [2] (setting [5]). Further, the Kd was found to be 192 nM at RORα LBD and 1240 nM at RORβ LBD.
